Paper PMC5430920 (Scientific Reports, 2017)

Legend:
[1] = molecular target: T1, MtOPRT (Mycobacterium tuberculosis, UniProt P9WHK9)
T1 construct: gene pyrE

[2] = molecular target: T1, MtOPRT; remark: listed apart in the source

T1 sequence (P9WHK9 whole entry): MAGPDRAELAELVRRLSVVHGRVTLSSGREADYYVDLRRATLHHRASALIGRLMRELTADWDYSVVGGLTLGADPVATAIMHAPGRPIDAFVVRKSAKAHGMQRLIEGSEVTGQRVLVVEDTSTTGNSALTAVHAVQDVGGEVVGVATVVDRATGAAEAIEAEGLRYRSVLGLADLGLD

O=P(O)(O)OC[C@H]1O[C@H](OP(=O)(O)OP(=O)(O)O)[C@H](O)[C@@H]1O [PRPP, α-D-5-phosphoribosyl-1-pyrophosphate]
X-ray crystal structure, 2.25 Å [1]: A PRPP molecule could be unambiguously identified in the active site in both monomers

O=P(O)(O)O [Pi, inorganic phosphate]
X-ray crystal structure, 1.90 Å [2]: the inorganic phosphate occupies the same binding pocket of the 5-phosphate group of PRPP
